The source of these data is paper PMC6891749, “[b]-Annulated Halogen-Substituted Indoles as Potential DYRK1A Inhibitors” (Molecules, 2019).

The structures appear in SMILES notation. ≈ marks a conversion by molar mass, not a printed value. Where a name gives a salt, the structure may show the parent alone. Read-outs that look alike come from different tables or passages of the source.

The target in one data set is RnDYRK1A-kd (Rattus norvegicus, UniProt Q63470). Nature of the data set: ADP-Glo luminescent kinase assay. Format: biochemical, Rn. As to conditions: for DYRK1A inhibitory activity (in words): ADP-Glo assay. As for the experimental part: (§1) Protein kinase assays with the derivatives 11–15 were carried out by radiometric methods using protein kinases, reagents, and conditions as described before. The DYRK1A inhibitory activities of the Mannich bases 16, 27 and 28 were assayed in 384-well plates using the ADP-GloTM assay kit (Promega, Madison, WI) according to the recommendations of the manufacturer. This assay is a luminescent ADP detection assay that provides a homogeneous and high-throughput screening method to measure kinase activity by quantifying the amount of ADP produced during a kinase reaction. Briefly, the reactions were carried out in a final volume of 6 µL for 30 min at 30 °C in appropriate kinase buffer, with either protein or peptide as substrate in the presence of 10 µM ATP. After that, 6 µL of ADP-GloTM Kinase Reagent was added to stop the kinase reaction. After an incubation time of 50 min at room temperature (rt), 12 µL of Kinase Detection Reagent was added for one hour at rt. The transmitted signal was measured using the Envision (PerkinElmer, Waltham, MA) microplate luminometer and expressed in Relative Light Units (RLU). In order to determine the half maximal inhibitory concentration (IC50), the assays were performed in duplicate in the absence or presence of increasing doses of the tested compounds. Kinase activities are expressed in % of maximal activity, i.e. measured in the absence of inhibitor. The peptide substrate was obtained from Proteogenix (Schiltigheim, France). RnDYRK1A-kd was assayed in buffer A with 0.033 μg/µl of the peptide […] as substrate (buffer A: 10 mM MgCl2, 1 mM EGTA, 1 mM DTT, 25 mM Tris-HCl pH 7.5, 50 µg/mL heparin). All data points for construction of dose response curves were recorded in triplicate. Typically, the standard deviation of single data points was below 10%.

Data set [1] deals with CDK1. In words: Protein kinase assay, radiometric. Format: biochemical. As to conditions: dose response curves, triplicates. Here is the method:
(§2) The new compounds 11–16 were tested on an array of protein kinases of the CMGC family. First, the kinases were incubated with 10 µM solutions of the test compounds and the residual activities compared to controls were measured. The IC50 values of promising compounds were then determined from concentration-response curves (Table 1).
as §1

The next data set has as its target CDK9 (Homo sapiens, UniProt P50750). In words: Protein kinase assay, radiometric. Format: biochemical. The conditions noted are these: dose response curves, triplicates. As for the experimental part: as §2, §1
The next data set concerns the target CLK1 (Mus musculus, UniProt P22518). In words: Protein kinase assay, radiometric. Format: biochemical. The conditions noted are these: dose response curves, triplicates. Here is the method:
as §2, §1

A further data set addresses GSK-3. In words: Protein kinase assay, radiometric. The format is biochemical. The conditions noted are these: dose response curves, triplicates. As for the experimental part: as §2, §1
A further data set concerns the target CK1. In words: Protein kinase assay, radiometric. The format is biochemical. As to conditions: dose response curves, triplicates. Here is the method: as §2, §1
In the next data set the target is CDK5 (Homo sapiens, UniProt Q00535). Nature of the data set: Protein kinase assay, radiometric. Format: biochemical. As to conditions: dose response curves, triplicates. Here is the method:
as §2, §1

For a further data set, the target named is CDK2 (Homo sapiens, UniProt P24941). In words: Protein kinase assay, radiometric. Format: biochemical. The conditions noted are these: dose response curves, triplicates. Here is the method:
as §2, §1

Data set [2] addresses T1, DYRK1A (Homo sapiens, UniProt Q13627). Nature of the data set: Protein kinase assay, radiometric. The format is biochemical. The conditions noted are these: dose response curves, triplicates. As for the experimental part:
as §2, §1

For another data set, the system named is DYRK1B. The arrangement: method as in PMID 25264830, PMID 27766861. As to conditions: cited from earlier work.
For data set [3], the target named is T1, DYRK1A. The arrangement: method as in PMID 25264830, PMID 27766861. As to conditions: cited from earlier work.
Data set [4] is described as follows: Thermodynamic solubility, shake-flask method with HPLC. The format is physicochemical. The conditions noted are these: aqueous phosphate buffer, thermodynamic from solid, phosphate buffer pH 7.4, shake-flask, 25 °C, mean value and range, read-out: Sexp., therm., pH 7.4 (thermodynamic solubility). As for the experimental part:
For determination of thermodynamic solubility an aqueous phosphate buffer at pH 7.4 with sodium chloride was used. The buffer was prepared by dissolving Na2HPO4 × 2 H2O (298 mg), KH2PO4 (19 mg) and NaCl (800 mg) in water (100 mL). The pH was adjusted to 7.4 by addition of aq. hydrochloric acid (3 mol/L). The thermodynamic solubility was determined using a shake-flask method with quantification by a buffer-HPLC method. […] The mixtures were shaken at 25 °C and 400 rpm for 24 and 48 h (IKA KS 3000 ic control, IKA-Werke, Staufen, Germany). For each time (24 and 48 h) two independent measurements at two different detection wavelengths (254 and 280 nm) were determined. After 24 h and 48 h the mixtures were inspected for remaining solids. The concentrations in the resulting saturated solutions were quantified by isocratic HPLC with external standard calibration. […] For calibration, a stock solution of the test compounds in DMSO was prepared and diluted with DMSO to suitable concentrations. The AUC at the wavelength 254 nm and 280 nm was used for quantification.

Data set [5] in a line: Kinetic solubility, laser nephelometry. The format is physicochemical. The conditions noted are these: for solubility kinetic: aqueous phosphate buffer, aqueous buffer, kinetic from dmso stock, phosphate buffer pH 7.4, nephelometry, mean value and range, read-out: Sexp., kin., pH 7.4 (kinetic solubility). Here is the method:
The kinetic solubility was determined using laser nephelometry. A stock solution based on the results of the thermodynamic solubility measurement of the test compounds in DMSO was prepared. The stock solution was diluted with DMSO to get different concentrations. The DMSO dilutions (5 µL) were placed on a 96-well plate filled with aqueous phosphate buffer pH 7.4 (195 µL, same buffer as for thermodynamic solubility). Two dilution series of the stock solution were measured. A blank was determined for every measurement. The well plate was scanned by a nephelometer (Nephelostar Plus, BMG Labtech, Ortenberg, Germany). Precipitated particles scatter the laser light which is detected by the nephelometer. The intensity of the scattered light is assumed to be proportional to the particle concentration in the suspension. The different concentrations were plotted versus the intensities measured by the nephelometer. The resulting kick-off curves led directly to the kinetic solubility by determining the intersection of the linear straight line paralleling the x axis and the linear slope.

The subject of data set [6] is CDK1. On the set-up: method as in Falke et al. [34]. As to conditions: radiometric; ref Falke et al. [34]; cited from earlier work.
The subject of a further data set is MAO-A. The arrangement: method as in PMID 15010457, PMID 20981014. As to conditions: cited from earlier work.

CDK9, sequence (P50750 whole entry, species assumed): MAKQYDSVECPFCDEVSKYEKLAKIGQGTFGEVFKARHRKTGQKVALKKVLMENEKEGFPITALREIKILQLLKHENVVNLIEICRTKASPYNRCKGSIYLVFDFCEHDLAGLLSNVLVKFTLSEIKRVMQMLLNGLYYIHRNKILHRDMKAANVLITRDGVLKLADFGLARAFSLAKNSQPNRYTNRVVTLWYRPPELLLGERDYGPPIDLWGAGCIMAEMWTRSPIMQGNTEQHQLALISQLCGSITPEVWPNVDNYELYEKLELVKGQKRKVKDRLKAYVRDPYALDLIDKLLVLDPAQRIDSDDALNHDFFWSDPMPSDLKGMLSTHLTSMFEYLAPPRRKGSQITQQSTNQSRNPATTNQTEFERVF
CDK9, sequence (O60563 whole entry partner, species assumed): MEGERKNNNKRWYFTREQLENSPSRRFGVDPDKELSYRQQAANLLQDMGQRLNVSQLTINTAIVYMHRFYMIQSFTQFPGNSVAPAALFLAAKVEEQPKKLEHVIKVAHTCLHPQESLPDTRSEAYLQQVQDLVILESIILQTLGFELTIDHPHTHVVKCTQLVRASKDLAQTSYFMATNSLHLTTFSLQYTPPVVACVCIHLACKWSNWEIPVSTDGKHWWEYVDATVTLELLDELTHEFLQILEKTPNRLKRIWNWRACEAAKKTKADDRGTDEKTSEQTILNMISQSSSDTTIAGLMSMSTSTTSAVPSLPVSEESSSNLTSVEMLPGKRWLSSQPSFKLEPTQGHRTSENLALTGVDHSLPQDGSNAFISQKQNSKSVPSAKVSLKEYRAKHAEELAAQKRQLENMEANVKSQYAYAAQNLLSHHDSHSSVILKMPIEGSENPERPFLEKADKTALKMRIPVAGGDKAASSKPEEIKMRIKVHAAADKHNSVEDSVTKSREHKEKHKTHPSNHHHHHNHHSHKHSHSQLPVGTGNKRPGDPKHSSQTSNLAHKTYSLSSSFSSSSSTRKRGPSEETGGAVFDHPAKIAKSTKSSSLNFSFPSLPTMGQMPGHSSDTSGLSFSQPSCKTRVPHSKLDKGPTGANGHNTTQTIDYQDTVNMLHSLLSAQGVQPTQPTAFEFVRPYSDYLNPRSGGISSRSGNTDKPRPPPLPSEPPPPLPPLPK
CDK5, sequence (Q00535 whole entry, species assumed): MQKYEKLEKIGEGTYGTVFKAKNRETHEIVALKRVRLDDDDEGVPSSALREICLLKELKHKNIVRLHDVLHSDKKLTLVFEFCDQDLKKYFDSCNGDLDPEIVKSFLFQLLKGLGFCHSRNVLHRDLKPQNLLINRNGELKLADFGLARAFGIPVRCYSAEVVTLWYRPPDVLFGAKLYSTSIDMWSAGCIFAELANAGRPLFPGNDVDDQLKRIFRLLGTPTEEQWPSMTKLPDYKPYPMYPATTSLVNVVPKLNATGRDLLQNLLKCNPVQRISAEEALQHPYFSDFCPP
CDK5, sequence (Q15078 99-307 partner limits assumed, species assumed): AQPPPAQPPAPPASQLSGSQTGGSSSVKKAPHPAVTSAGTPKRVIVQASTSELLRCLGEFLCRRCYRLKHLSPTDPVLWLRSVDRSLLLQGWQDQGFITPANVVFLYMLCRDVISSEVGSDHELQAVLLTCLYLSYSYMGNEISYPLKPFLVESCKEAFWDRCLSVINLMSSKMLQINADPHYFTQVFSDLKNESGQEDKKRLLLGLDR
CLK1, sequence (P22518 whole entry): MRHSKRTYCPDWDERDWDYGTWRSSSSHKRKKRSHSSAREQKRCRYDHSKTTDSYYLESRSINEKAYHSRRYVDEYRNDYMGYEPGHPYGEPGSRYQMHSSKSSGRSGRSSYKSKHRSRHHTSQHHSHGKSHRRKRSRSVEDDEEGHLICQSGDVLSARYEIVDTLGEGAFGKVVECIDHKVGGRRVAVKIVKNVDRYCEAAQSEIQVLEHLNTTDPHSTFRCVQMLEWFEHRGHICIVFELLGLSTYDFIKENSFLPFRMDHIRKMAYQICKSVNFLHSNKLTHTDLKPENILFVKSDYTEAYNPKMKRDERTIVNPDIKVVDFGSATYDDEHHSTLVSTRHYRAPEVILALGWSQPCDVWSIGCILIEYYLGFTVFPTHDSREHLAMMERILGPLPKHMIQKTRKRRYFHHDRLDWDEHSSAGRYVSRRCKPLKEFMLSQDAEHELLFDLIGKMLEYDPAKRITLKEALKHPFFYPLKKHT

Take `CN(C)CC1CCc2[nH]c3c(Cl)cccc3c2C1=O` (racemic) [compound 28, (R,S)-8-Chloro-3-[(dimethylamino)methyl]-1,2,3,9-tetrahydro-4H-carbazol-4-one hydrochloride]: the “DYRK1A inhibitory activity (in words)” value on RnDYRK1A-kd was “inactive”.
By IC50 is commonly meant the concentration at which inhibition is half-maximal. With `O=C1CCc2[nH]c3c(Cl)cccc3c21` [compound 12, 5-Chloro-3,4-dihydrocyclopenta[b]indol-1(2H)-one], the IC50 was over 10 µM against CDK1 [1]; over 10 µM against CDK9; 0.89 µM at CLK1; over 10 µM against GSK-3; over 10 µM against CK1; over 10 µM against CDK5. In addition, the results for the IC50 against CDK2 and on DYRK1A [2] were over 10 µM and 0.71 µM, respectively.
For the molecule `O=C1NCCc2[nH]c3c(Cl)cccc3c21` [compound 14, 6-Chloro-2,3,4,5-tetrahydro-1H-pyrido[4,3-b]indol-1-one], the concentration for half-maximal inhibition (IC50) was 1.2 µM against CDK1 [1]; 0.88 µM against CDK9; 0.12 µM on CLK1; 2.7 µM at GSK-3; 3.6 µM at CK1; 0.81 µM at CDK5. The IC50 at CDK2 turned out to be 1.7 µM; against DYRK1A [2], 0.19 µM.
Turning to `COC(=N)c1nc2ccc3ncnc(Nc4ccc(Cl)cc4Cl)c3c2s1` [compound 7], in the data set on DYRK1B, the “Activity on DYRK1B” value was “subnanomolar”. Moreover, the “Activity on DYRK1A” value on DYRK1A [3] is listed as “subnanomolar”.
One may read the solubility (thermodynamic) as solubility found after equilibrating the solid with the medium. By kinetic solubility is commonly meant solubility judged after dilution from a stock solution rather than from solid. In the case of `O=C(O)c1nc2ccccc2c2[nH]c3c(I)cccc3c12` [compound 10, reference compound], the thermodynamic solubility in data set [4] is under 5 µM. For the same molecule, in [5], the solubility (kinetic) was determined as 5.28 µM (≈ 2.05 µg/mL). In the data set with CDK1 [6], the IC50 was over 10 µM.
In the case of `O=C1c2c([nH]c3c(Cl)cccc23)CCC1CN1CCCCC1` (racemic) [compound 16, (R,S)-8-Chloro-3-(piperidin-1-ylmethyl)-1,2,3,9-tetrahydro-4H-carbazol-4-one hydrochloride], the solubility (thermodynamic) in [4] came out at 13600 µM. Also, at RnDYRK1A-kd, the “DYRK1A inhibitory activity (in words)” value is “complete loss of DYRK1A inhibitory activity”. The IC50 at RnDYRK1A-kd (ADP-Glo assay kit, 10 µM ATP, read-out: IC50 DYRK1A) was over 10 µM. The solubility (kinetic) in data set [5] is 2310 µM.
With `CCN1/C(=C/C(C)=O)Sc2ccc(O)cc21` [compound 4], the MAO-A inhibition result in the data set with MAO-A is given as “no MAO-A inhibition”.
With `O=C1NCCCc2[nH]c3c(Cl)cccc3c21` [compound 15, 7-Chloro-3,4,5,6-tetrahydroazepino[4,3-b]indol-1(2H)-one], the half-inhibitory concentration (IC50) is 7 µM against CDK1 [1]; 2.2 µM at CDK9; 0.32 µM at CLK1; over 10 µM at GSK-3; 4.2 µM on CK1; 2.5 µM against CDK5. Besides, the IC50 against CDK2 was 2.5 µM; against DYRK1A [2], 2.2 µM.
For `O=C1c2c([nH]c3c(Cl)cccc23)CCC1CN1CCOCC1` (racemic) [compound 27, (R,S)-8-Chloro-3-(morpholinomethyl)-1,2,3,9-tetrahydro-4H-carbazol-4-one hydrochloride], the “DYRK1A inhibitory activity (in words)” value at RnDYRK1A-kd is “inactive”.
Take `O=c1ccccc2[nH]c3c(Cl)cccc3c12` [compound 11, 4-Chlorocyclohepta[b]indol-10(5H)-one]: the solubility (thermodynamic) in data set [4] is under 5 µM. Also, the half-maximal inhibitory concentration (IC50) against CDK1 [1] was over 10 µM; against CDK9, over 10 µM; against CLK1, 0.17 µM; at GSK-3, over 10 µM; against CK1, over 10 µM; against CDK5, over 10 µM. The values for the IC50 against CDK2 and at DYRK1A [2] were over 10 µM and 0.2 µM, respectively. Moreover, the kinetic solubility in data set [5] came to 26.1 µM (≈ 5.99 µg/mL). The “Improvement of kinetic solubility compared to 10” value in data set [5] (phosphate buffer pH 7.4) is given as “fivefold improved solubility”.
For `O=C1CCCc2[nH]c3c(Cl)cccc3c21` [compound 13, 8-Chloro-1,2,3,9-tetrahydro-4H-carbazol-4-one], the IC50 was 0.3 µM on CLK1; 4.4 µM on GSK-3; over 10 µM at CK1; 8.2 µM against CDK5; 1.6 µM at DYRK1A [2].
